Columns and labels:
Format in all cases: cell-based, human
BT-474 cells = experiment: Flow cytometry cell cycle analysis
SKBR-3 cells = experiment: Confocal microscopy intracellular distribution, SKBR-3; details: SKBR-3, 5 μM, 30 min, 37 °C
MCF-7 cells = experiment: Confocal microscopy intracellular distribution, MCF-7; details: MCF-7, 30 min, 4 h, 24 h incubation

SMILES | effect on cell cycle inhibition (BT-474 cells) | DOX fluorescence distribution in cells (SKBR-3 cells) | DOX fluorescence in cells (MCF-7 cells)
N=C(N)NCCC[C@H](N)C(=O)N[C@@H](CC(=O)N[C@@H](Cc1ccccc1)C(=O)O)c1cccc2ccccc12 [Compound 5, Arg-aminonaphthylpropionic acid-Phe] | no significant effect on cell cycle inhibition |  | 
COc1cccc2c1C(=O)c1c(O)c3c(c(O)c1C2=O)C[C@@](O)(C(=O)CO)C[C@@H]3O[C@H]1C[C@H](N)[C@H](O)[C@H](C)O1 [DOX, Doxorubicin] |  | strong DOX fluorescence in both the nucleus and cytoplasm | fluorescence was seen in 30 min

Reference: paper PMC5148673 (European journal of medicinal chemistry, 2016)
